Laboratory results reported in patent publication US20120122727A1, “IN VITRO METHOD FOR PREDICTING WHETHER A COMPOUND IS GENOTOXIC IN VIVO” (priority 2009, published 2012).

How the values were obtained:
[1] = tested on: primary mouse hepatocytes; assay: Gene expression (Affymetrix Mouse Genome 430 2.0) in primary mouse hepatocytes, true vs false GTX, 24 h and 48 h; conditions: 48 h; log2, corrected for vehicle control
[2] = tested on: primary mouse hepatocytes; assay: Gene expression in primary mouse hepatocytes, GTX vs non-GTX (four-gene classifier, 24 h)
Description: Hepatocyte cells were incubated and exposed to a compound for 24 h before being harvested for RNA isolation.
The results of the gene expression analysis may then be fed into a statistical software package such as R, Splus, or Microsoft Excel. […] If none or only one of these criteria were met, no point was scored.
For each of the four genes mentioned in the table (1700007K13RIK, GAS2L3, SPC25, DDIT4L), a statistical comparison was made between the normalized expression data for these genes. […] If none or only one of these criteria were met, no point was scored.
For each compound, the sum of the scores for four genes is taken. If this score is 0, a compound can be believed not to be genotoxic. If this score is 1, 2, 3 or 4, a compound is genotoxic.
If none or only one of these criteria were met, no point was scored.

[3] = 24 h exposure, average of four replicates
[4] = log 2 ratio, 24 h exposure, concentration per Table 4

Compound: CN(C)N=O [DMN, Dimethylnitrosamine]
- Gene expression AK017734 average [1]: 1.0611
- Gene expression AK018383 average [1]: 0.8246
- Gene expression AK019979 average [1]: −1.11
- Gene expression AV095209 average [1]: −0.454
- Gene expression AV141095 average [1]: −0.8663
- Gene expression AV173869 average [1]: −1.272
- Gene expression AV216768 average [1]: −0.2641
- Gene expression AV219418 average [1]: 4.5473
- Gene expression AV221299 average [1]: −1.5693
- Gene expression AV246296 average [1]: 0.9572
- Gene expression AV251625 average [1]: 1.246
- Gene expression AV254764 average [1]: 1.133
- Gene expression AV327248 average [1]: 4.023
- Gene expression BB009155 average [1]: 2.343
- Gene expression BB027848 average [1]: 1.191
- Gene expression BB043558 average [1]: 2.187
- Gene expression BB046347 average [1]: 0.7743
- Gene expression BB140436 average [1]: −1.281
- Gene expression BB204486 average [1]: −0.3108
- Gene expression BB223872 average [1]: 1.694
- Gene expression BB246912 average [1]: −0.9806
- Gene expression BB275142 average [1]: 1.162
- Gene expression BB458460 average [1]: −0.6934
- Gene expression BB463610 average [1]: 1.546
- Gene expression BB730977 average [1]: −0.656
- Gene expression BB743970 average [1]: 3.154
- Gene expression BB770528 average [1]: 1.709
- Gene expression BB781615 average [1]: 1.487
- Gene expression BC003284 average [1]: 1.379
- Gene expression BC004827 average [1]: −1.0689
- Gene expression BC005552 average [1]: −0.5235
- Gene expression BC006713 average [1]: 1.668
- Gene expression BC010318 average [1]: −1.167
- Gene expression BC012247 average [1]: 1.67
- Gene expression BC012955 average [1]: −1.97
- Gene expression BC013893 average [1]: 0.5487
- Gene expression BC017615 average [1]: −2.7334
- Gene expression BC019379 average [1]: −0.3602
- Gene expression BC019882 average [1]: 1.494
- Gene expression BC021352 average [1]: 3.512
- Gene expression BC022148 average [1]: 1.8449
- Gene expression BC025169 average [1]: −1.296
- Gene expression BC026131 average [1]: −0.7571
- Gene expression BC027026 average [1]: 2.571
- Gene expression BC027121 average [1]: 2.075
- Gene expression BC027185 average [1]: 1.462
- Gene expression BE956581 average [1]: 3.033
- Gene expression BF719766 average [1]: 1.2016
- Gene expression BG065754 average [1]: 0.9953
- Gene expression BG066491 average [1]: −0.9757
- Gene expression BG076151 average [1]: 1.205
- Gene expression BG076333 average [1]: −0.7995
- Gene expression BG797099 average [1]: 1.704
- Gene expression BG967046 average [1]: 1.1973
- Gene expression BI651416 average [1]: 1.8588
- Gene expression BI966443 average [1]: 3.295
- Gene expression BM198879 average [1]: 1.096
- Gene expression BM200015 average [1]: 1.16
- Gene expression BM230508 average [1]: 1.54
- Gene expression BM936480 average [1]: 0.7781
- Gene expression BQ174991 average [1]: −0.28
- Gene expression L21027 average [1]: −0.4472
- Gene expression NM_007556 average [1]: −1.29
- Gene expression NM_007980 average [1]: 0.3252
- Gene expression NM_007987 average [1]: 1.665
- Gene expression NM_008522 average [1]: 4.993
- Gene expression NM_008935 average [1]: −1.382
- Gene expression NM_009897 average [1]: 3.619
- Gene expression NM_011075 average [1]: 2.401
- Gene expression NM_011176 average [1]: 1.597
- Gene expression NM_011316 average [1]: 2.0898
- Gene expression NM_012006 average [1]: 1.6671
- Gene expression NM_013642 average [1]: 0.3461
- Gene expression NM_013738 average [1]: 1.562
- Gene expression NM_013929 average [1]: 1.891
- Gene expression NM_018881 average [1]: 0.9481
- Gene expression NM_019738 average [1]: −2.9169
- Gene expression NM_030697 average [1]: 2.5583
- Gene expression NM_053122 average [1]: −2.3248
- Gene expression NM_134147 average [1]: −1.579
- Gene expression NM_134188 average [1]: −0.6378
- Gene expression X62701 average [1]: 0.07157
- score 1700007K13RIK [2, 3]: 1
- score DDIT4L [2, 3]: 0
- score GAS2L3 [2, 3]: 0
- score SPC25 [2, 3]: 0
- Ratios of gene expression treated/untreated 1700007K13RIK [2, 4]: 2.141
- Ratios of gene expression treated/untreated DDIT4L [2, 4]: 0.7662
- Ratios of gene expression treated/untreated GAS2L3 [2, 4]: 0.2166
- Ratios of gene expression treated/untreated SPC25 [2, 4]: 0.8368
- Total score ([2]; sum of scores for four genes, 0 = not genotoxic, 1, 2, 3 or 4 = genotoxic): 1
